Measured values: EP1268431B1 (Wyeth, priority 2000, dated 2001)
“And” between values parts separate entries of the source, which are not always exact repeats. Equal values may be shown once. Read-outs that look alike come from different tables or passages of the source.

Columns and labels:
[1] = test system: Human adenocarcinoma cell line LoVo; test: Cell Based Screen for Inhibitors of Raf Kinase, LoVo cells; conditions: four days, SRB
Description: (§1) • Cell Lines: Human adenocarcinoma cell line LoVo which is known to be growth inhibited by low nM concentrations of a reference standard inhibitor of Ras and human adenocarcinoma cell line CaCo-2, which is known to be growth resistant to the same reference compound. • Cell Media: RPMI 1640 with 10% Fetal Bovine Serum supplemented with L-glutamine and Pennicilin/Streptomycin. • Compounds: Supplied usually as a 10 mM stock in 100% DMSO. • Normal Saline: 150 mM NaCl • Trichloroacetic Acid (TCA): 50% (w/v) in water • Sulforhodamine B (SRB): 0.4% (w/v) in 1% Acetic Acid • Tris Base: 10 mM in water
(§2) Cells are plated at 2000 cells per well for cell line LoVo and 1500 cells for cell line CaCo-2 in 96 well plates. Cells are plated in media (200 µl) and allowed to adhere overnight at 37° C. At 24 hours post plating, compounds are added directly at a volume of 0.5 µl. For the qualitative screen (compounds screened at 25 µM) compound is added directly to cells. For the quantitative screen, compound is first diluted in DMSO to generate concentrations of compound or reference standard of: 1, 5, 10 and 25 µM. It is advisable to make the dilutions in an identical 96 well plate so that compounds may be added using a multichannel micropipettor set at 0.5 µl. The cells are then incubated for four days after which the media is removed using a 12 well manifold by first tipping the plate forward at a 45 degree angle and then inserting the manifold in an upright orientation to prevent the tips of the manifold from disturbing cells at the bottom of the plate. 200 µl of normal saline is then added to each well using an 8 well multichannel pipettor, followed by the careful addition of 50 µl of 50% TCA. The plates are then incubated for 2 hours at 4 ° C, after which the supernatant is removed using the same technique as above and the plated washed twice with 200 µl water. The plates are then air dried and 50 µl of SRB stock solution is carefully added so that the entire bottom of each well is covered. This again may be used using an 8 well multichannel pipettor. The SRB is incubated with fixed cells for 15 minutes at room temperature after which the SRB is removed with the manifold as described above and the plates washed twice with 350 µl of 1% acetic acid per well each time.The plates are then air dried after which the bound SRB is released from protein by the addition of 200 µl of Tris base. Resolubilizing the SRB is aided by placing the plates on a rotator for 15-30 minutes. The absorbance of each well is determined at 550 or 562 nm using a microtiter plate reader.
(§3) Each compound or dilution thereof is performed in triplicate. Outliers are identified by visual inspection of the data. Each plate should have a "0" control (vehicle only).
(§4) Quantitative Assay: A standard curve is constructed by plotting the concentration of compound against the average absorbance calculated at that concentration. A curve is plotted and the concentration at which the curve passes through the 50% the absorbance mark seen in the "0" control well is the IC50 calculated for that compound. […]

[2] = test system: human adenocarcinoma cell line CaCo-2; test: Cell Based Screen for Inhibitors of Raf Kinase, CaCo-2 cells; conditions: CaCo-2, four days, SRB
Description: as §1, §2, §3, §4

[3] = test system: Rat2 fibroblasts stably transformed with a plasmid containing a CMV promotor controlled v-Src/Hu c-Src fusion gene; test: Anchorage Independent Src-transformed Fibroblast Proliferation Assay
c-Src = target: T1, c-Src (Homo sapiens, UniProt P12931); test: c-Src Kinase Assay (ELISA format); assay type: biochemical
T1 construct: purchased Upstate Biotechnologies
T1 sequence (P12931 whole entry, species assumed): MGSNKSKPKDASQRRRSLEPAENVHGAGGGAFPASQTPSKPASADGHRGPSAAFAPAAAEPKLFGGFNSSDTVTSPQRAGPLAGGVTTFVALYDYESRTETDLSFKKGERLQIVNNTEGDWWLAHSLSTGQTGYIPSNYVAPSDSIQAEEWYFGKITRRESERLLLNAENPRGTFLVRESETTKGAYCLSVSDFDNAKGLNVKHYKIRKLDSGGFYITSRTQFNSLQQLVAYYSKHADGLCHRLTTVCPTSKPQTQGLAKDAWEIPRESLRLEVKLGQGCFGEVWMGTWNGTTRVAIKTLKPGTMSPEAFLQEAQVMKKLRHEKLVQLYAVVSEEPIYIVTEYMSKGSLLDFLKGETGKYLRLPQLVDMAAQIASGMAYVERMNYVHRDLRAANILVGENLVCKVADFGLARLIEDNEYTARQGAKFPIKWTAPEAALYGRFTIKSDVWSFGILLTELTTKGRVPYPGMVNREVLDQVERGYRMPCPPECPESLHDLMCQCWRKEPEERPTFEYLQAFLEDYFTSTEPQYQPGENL
In short: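 Partially purified Src preincubated with compound and biotinylated peptide 10 min at 30 °C in Tris-HCl pH 7.5 with MgCl2, EGTA, vanadate; ATP-started reaction ran 1 h at 30 °C, EDTA-stopped. Phosphopeptide captured on streptavidin, detected by HRP anti-phosphotyrosine; % inhibition = (1 − Abs/Abs(max)) × 100.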

[4] = Rattus norvegicus, Rat2, 120 h, read-out: anch-indep src-tx fib IC50, suspension growth, MTS on Day 5

Row | Compound | IC50 ([1]; Homo sapiens, 96 h) [nM] | IC50 ([2]; Homo sapiens, Caco-2, 96 h) [nM] | further results
1 | N#Cc1cnc2cc(-c3csc(CN4CCOCC4)c3)ccc2c1Nc1ccc(Oc2ccccc2)cc1 [Example 7, 7-[5-(4-Morpholinylmethyl)-3-thienyl]-4-(4-phenoxyanilino)-3-quinolinecarbonitrile] | 3700 | > 10000 | 
2 | N#Cc1cnc2cc(-c3csc(CN4CCOCC4)c3)ccc2c1Nc1ccc(Cc2ccccc2)cc1 [Example 8, 4-(4-Benzylanilino)-7-[5-(4-morpholinylmethyl)-3-thienyl]-3-quinolinecarbonitrile] | > 10000 | > 10000 | 
3 | Cn1ccnc1Sc1ccc(Nc2c(C#N)cnc3cc(-c4ccc(CN5CCOCC5)c(CN5CCOCC5)c4)ccc23)cc1Cl [Example 35, 7-[3,4-Bis(4-morpholinylmethyl)phenyl]-4-[3-chloro-4-[(1-methyl-1H-imidazol-2-yl)sulfanyl]anilino}-3-quinolinecarbonitrile] | < 5 | > 10000 | IC50 [1]: 6 nM
4 | N#Cc1cnc2cc(-c3ccc(CN4CCOCC4)cn3)ccc2c1Nc1ccc(Oc2ccccc2)cc1 [Example 56, 7-[5-(4-Morpholinylmethyl)-2-pyridinyl]-4-(4-phenoxyanilino)-3-quinolinecarbonitrile] | 290 | 1000 | IC50 [1]: 440 nM and 310 nM; IC50 [2]: 600 nM
5 | Cn1ccnc1Sc1ccc(Nc2c(C#N)cnc3cc(-c4ccc(CN5CCOCC5)cc4)ccc23)cc1Cl [Example 63, 4-{3-Chloro-4-[(1-methyl-1H-imidazol-2-yl)sulfanyl]anilino}-7-[4-(4-morpholinylmethyl)phenyl]-3-quinolinecarbonitrile] | 3800 | 2200 | 
6 | CC(C)N1CCN(Cc2ccc(-c3ccc4c(Nc5ccc(Sc6nccn6C)c(Cl)c5)c(C#N)cnc4c3)cc2)CC1 [Example 98, 4-({3-Chloro-4-[(1-methyl-1H-imidazol-2-yl)sulfanyl]phenyl}amino)-7-{4-[(4-isopropyl-1-piperazinyl)methyl]phenyl}-3-quinolinecarbonitrile] | 7.1 | 640 | 
7 | CN(CCO)Cc1ccc(-c2ccc3c(Nc4ccc(Sc5nccn5C)c(Cl)c4)c(C#N)cnc3c2)nc1 [Example 106, 4-({3-Chloro-4-[(1-methyl-1H-imidazol-2-yl)sulfanyl]phenyl}amino)-7-(5-{[(2-hydroxyethyl)(methyl)amino]methyl}-2-pyridinyl)-3-quinolinecarbonitrile] | 6.4 | > 1000 | 
8 | COC(=O)C1CCN(Cc2ccc(-c3ccc4c(Nc5ccc(Sc6nccn6C)c(Cl)c5)c(C#N)cnc4c3)nc2)CC1 [Example 107, Methyl 1-{[6-(4-{3-chloro-4-[(1-methyl-1H-imidazol-2-yl)sulfanyl]anilino}-3-cyano-7-quinolinyl)-3-pyridinyl]methyl}-4-piperidinecarboxylate] | 25 | > 1000 | 
9 | CCN1CCN(c2ccc(-c3ccc4c(Nc5ccc(Sc6nccn6C)c(Cl)c5)c(C#N)cnc4c3)nc2)CC1 [Example 108, 4-({3-Chloro-4-[(1-methyl-1H-imidazol-2-yl)sulfanyl]phenyl}amino)-7-[5-(4-ethyl-1-piperazinyl)-2-pyridinyl]-3-quinolinecarbonitrile] | 2.6 | 390 | 
10 | Cn1ccnc1Sc1ccc(Nc2c(C#N)cnc3cc(-c4ccc(CN5CCOCC5)nc4)ccc23)cc1Cl [Example 109, 4-({3-Chloro-4-[(1-methyl-1H-imidazol-2-yl)sulfanyl]phenyl}amino)-7-[6-(4-morpholinylmethyl)-3-pyridinyl]-3-quinolinecarbonitrile] | 6.8 | 980 | 
11 | Cn1ccnc1Sc1ccc(Nc2c(C#N)cnc3cc(-c4ccc(N5CCSCC5)nc4)ccc23)cc1Cl [Example 110, 4-({3-Chloro-4-[(1-methyl-1H-imidazol-2-yl)sulfanyl]phenyl}amino)-7-[6-(4-thiomorpholinyl)-3-pyridinyl]-3-quinolinecarbonitrile] | 10 | > 1000 | 
12 | COc1cc2c(Nc3ccc(Sc4nccn4C)c(Cl)c3)c(C#N)cnc2cc1-c1ccc(CN2CCOCC2)cc1 [Example 123, 4-{3-Chloro-4-[(1-methyl-1H-imidazol-2-yl)sulfanyl]anilino}-6-methoxy-7-[4-(4-morpholinylmethyl)phenyl]-3-quinolinecarbonitrile] | 40 | 1500 | 
13 | COc1cc2c(Nc3ccc(Sc4nccn4C)c(Cl)c3)c(C#N)cnc2cc1-c1csc(CN2CCOCC2)c1 [Example 125, 4-{3-Chloro-4-[(1-methyl-1H-imidazol-2-yl)sulfanyl]anilino}-6-methoxy-7-[5-(4-morpholinylmethyl)-3-thienyl]-3-quinolinecarbonitrile] | 20 | 1900 | IC50 [1]: 15 nM; IC50 [2]: 2800 nM
14 | COc1cc2c(Nc3ccc(Sc4nccn4C)c(Cl)c3)c(C#N)cnc2cc1-c1csc(CN2CCN(C)CC2)c1 [Example 126, 4-{3-Chloro-4-[(1-methyl-1H-imidazol-2-yl)sulfanyl]anilino}-6-methoxy-7-{5-[(4-methyl-1-piperazinyl)methyl]-3-thienyl}-3-quinolinecarbonitrile] | 75 | > 1000 | 
15 | Cn1ccnc1Sc1ccc(Nc2c(C#N)cnc3cc(-c4ccc(C(=O)N5CCOCC5)cc4)ccc23)cc1Cl [Example 129, 4-({3-Chloro-4-[(1-methyl-1H-imidazol-2-yl)sulfanyl]phenyl}amino)-7-[4-(4-morpholinylcarbonyl)phenyl]-3-quinolinecarbonitrile] | 42 | > 1000 | 
16 | Cn1ccnc1Sc1ccc(Nc2c(C#N)cnc3cc(-c4cc(CN5CCOCC5)c(CN5CCOCC5)s4)ccc23)cc1Cl [Example 169, 7-[4,5-bis(4-morpholinylmethyl)-2-thienyl]-4-{3-chloro-4-[(1-methyl-1H-imidazol-2-yl)sulfanyl]anilino}-3-quinolinecarbonitrile] | 40 |  | IC50 [1]: 47 nM
17 | CCN1CCN(Cc2ccc(-c3ccc4c(Nc5ccc(Sc6nccn6C)c(Cl)c5)c(C#N)cnc4c3)nc2)CC1 [Example 171, 4-{3-chloro-4-[(1-methyl-1H-imidazol-2-yl)sulfanyl]anilino}-7-{5-[(4-ethyl-1-piperazinyl)methyl]-2-pyridinyl}-3-quinolinecarbonitrile] | 8 |  | IC50 [1]: 5 nM and < 5 nM
18 | Cn1ccnc1Sc1ccc(Nc2c(C#N)cnc3cc(-c4ccc(N5CCOCC5)nc4)ccc23)cc1Cl [Example 190, 4-{3-chloro-4-[(1-methyl-1H-imidazol-2-yl)sufanyl]anilino}-7-[6-(4-morpholinyl)-3-pyridinyl]-3-quinolinecarbonitrile] | 2 |  | 
19 | COc1cc(Nc2c(C#N)cnc3cc(-c4ccc(CN5CCOCC5)cc4)ccc23)c(Cl)cc1F [Example 235, 4-(2-chloro-4-fluoro-5-methoxyanilino)-7-[4-(4-morpholinylmethyl)phenyl]-3-quinolinecarbonitrile] |  |  | IC50 [3, 4]: 790 nM; IC50 (c-Src): 4.1 nM
20 | COc1ccc(Cl)c(Nc2c(C#N)cnc3cc(-c4ccc(CN5CCOCC5)cc4)ccc23)c1 [Example 236, 4-(2-chloro-5-methoxyanilino)-7-[4-(4-morpholinylmethyl)phenyl]-3-quinolinecarbonitrile] |  |  | IC50 [3, 4]: 570 nM; IC50 (c-Src): 3 nM
21 | COc1cc(Nc2c(C#N)cnc3cc(-c4ccc(CN5CCC(C(=O)O)CC5)cc4)ccc23)c(Cl)cc1Cl [Example 237, 1-{4-[3-cyano-4-(2,4-dichloro-5-methoxyanilino)-7-quinolinyl]benzyl}-4-piperidinecarboxylic acid] |  |  | IC50 [3, 4]: 490 nM; IC50 ([3]; read-out: anch-indep src-tx fib IC50, suspension growth, MTS on Day 5): 520 nM and 410 nM; IC50 (c-Src): 0.18 nM (2×) and 0.55 nM
